This is an account of results in US20230129258A1, “HETEROTANDEM BICYCLIC PEPTIDE COMPLEXES” (BicycleTx Limited, priority 2019, published 2023).

Starred links: 1 amine or outer side, 2 acyl side, 3 side chain; linkers in the order of their positions; H or OH if unused. Positions of bridges follow the written chain, without caps; N, C: chain ends. Non-standard residues stand in square brackets, D forms with d. Primed or numbered codes have the meaning given here. Chains are numbered I, II in the order given. No end group written: not given here. X4 = O=C(CCOCCOCCOCCOCCOCCn1cc(CCC(=O)[*:2])nn1)NCCCN(CCCNC(=O)CCOCCOCCOCCOCCOCCn1cc(CCC(=O)[*:3])nn1)CC(=O)[*:1]; X1 = O=C(CCOCCOCCOCCN(CCOCCOCCOCCn1cc(CCC(=O)[*:2])nn1)CCOCCOCCOCCn1cc(CCC(=O)[*:3])nn1)[*:1]; PYA″ = 4-pentynoic acid, acylating the D-Lys side chain, alkyne clicked to the linker azide; X2 = O=C(CCSCCC(=O)[*:1])N1CN(C(=O)CC[*:2])CN(C(=O)CC[*:3])C1; TATA = O=C(CC[*:1])N1CN(C(=O)CC[*:2])CN(C(=O)CC[*:3])C1; Ala(4-thiazolyl) = N[C@@H](Cc1cscn1)C(=O)O; Dip = N[C@H](C(=O)O)C(c1ccccc1)c1ccccc1; His(τ-Me) = Cn1cnc(C[C@H](N)C(=O)O)c1; d1Nal = N[C@H](Cc1cccc2ccccc12)C(=O)O; Hyp = O=C(O)[C@@H]1C[C@@H](O)CN1; hArg = N=C(N)NCCCC[C@H](N)C(=O)O; tBuAla = CC(C)(C)C[C@H](N)C(=O)O; Aad = N[C@@H](CCCC(=O)O)C(=O)O; Cysteamide = C(CS[*:3])N[*:1]; Cba = N[C@@H](CC1CCC1)C(=O)O; dK(PYA) = not defined here; NMeA = CN[C@@H](C)C(=O)O; Nle = CCCC[C@H](N)C(=O)O; Mpa = O=C(O)CCS

The data set concerns the target CD137 (Homo sapiens, UniProt Q07011). The experiment in a line: CD137 reporter assay (Promega, Jurkat cells) in co-culture with EphA2-expressing tumor cells (A549, PC3, HT29). Format: cell-based. The arrangement: host or cells: Jurkat reporter cells. As to conditions: for fold induction / Emax (fold induction over background): CD137 reporter coculture assay with PC3 tumor cells; for fold induction: read-out: Emax (fold induction over background); for EC50: EC50, CD137 reporter coculture assay with PC3 tumor cells; for Fold Improvement over BCY9173, EC50 (nM) / Fold Improvement over Emax: co-culture with PC3; for Fold Improvement over Emax: versus BCY9173. The protocol:
Culture medium, referred to as R1 media, is prepared by adding 1% FBS to RPMI-1640 (component of Promega kit CS196005). Serial dilutions of test articles in R1 are prepared in a sterile 96 well-plate. Add 25 μL per well of test articles or R1 (as a background control) to designated wells in a white cell culture plate. Tumor cells* are harvested and resuspended at a concentration of 400,000 cells/mL in R1 media. Twenty five (25) μL/well of tumor cells are added to the white cell culture plate. Jurkat cells (Promega kit CS196005, 0.5 mL) are thawed in the water bath and then added to 5 ml pre-warmed R1 media. Twenty five (25) μL/well of Jurkat cells are then added to the white cell culture plate. Incubate the cells and test articles for 6 h at 37° C., 5% CO2. At the end of 6 h, add 75 μL/well Bio-Glo™ reagent (Promega) and incubate for 10 min before reading luminescence in a plate reader (Clariostar, BMG). The fold change relative to cells alone (Jurkat cells+Cell line used in co-culture) is calculated and plotted in GraphPad Prism as log(agonist) vs response to determine EC50 (nM) and Fold Induction over background (Max).
The tumor cell types used in co-culture for EphA2 are A549, PC3 and HT29. The tumor cell type used in co-culture for PD-L1 is RKO.

Chain of CD137 (Q07011 24-255): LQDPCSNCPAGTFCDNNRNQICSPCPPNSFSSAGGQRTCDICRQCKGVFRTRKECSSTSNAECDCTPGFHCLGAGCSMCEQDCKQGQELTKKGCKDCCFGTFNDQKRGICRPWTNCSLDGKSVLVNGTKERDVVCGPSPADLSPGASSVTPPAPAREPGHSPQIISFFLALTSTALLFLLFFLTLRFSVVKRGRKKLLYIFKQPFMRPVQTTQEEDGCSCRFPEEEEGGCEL

The EC50 is the concentration needed to bring the measured effect to its halfway point. Turning to “I: A[hArg]DC[Hyp]LVNPLCL[Nle]P[dD]W[hArg]C-NH2 / II: Ac-C[tBuAla]PE[dK]PYCFADPY[Nle]CA-NH2 / III: Ac-C[tBuAla]PE[dK]PYCFADPY[Nle]CA-NH2 (linker I:4-I:11-I:18, II:1-II:8-II:15, III:1-III:8-III:15 via TATA; linker I:N-II:5-III:5 via X1) [BCY13289]”, the fold induction was found to be 45.8 and the EC50 was 0.08 nM.

For the substance “BCY12729: EphA2:CD137 1:2; BCY9594 + 2x BCY12352; linker N-(acid-PEG3)-N-bis(PEG3-azide) (peptide 1 A[hArg]DC[Hyp]LVNPLCLHP[dD]W[hArg]C; peptide 2 Ac-C[tBuAla]PE[dK(PYA)]PYCFADPY[Nle][Cysteamide]; linker I:4-I:11-I:18 via TATA (inferred); linker II:1-II:8-II:15 via TATA; linker II:N-II:5 via N‑(acid-PEG3)‑N‑bis(PEG3-azide); not fully specified (N-terminus); reading uncertain; also: chain 2 twice (1:2 complex))”, the “Fold Improvement over BCY9173, EC50 (nM)” value was found to be 0.5 fold and the “Fold Improvement over Emax” value is given as 1.6 fold.

In the case of “I: A[hArg]DC[Hyp]LVNPLCL[Dip]P[dD]W[hArg]C-NH2 / II: Ac-C[tBuAla]PE[dK]PYCFADPY[Nle]CA-NH2 / III: Ac-C[tBuAla]PE[dK]PYCFADPY[Nle]CA-NH2 (linker I:4-I:11-I:18, II:1-II:8-II:15, III:1-III:8-III:15 via TATA; linker I:N-II:5-III:5 via X1) [BCY13054]”, the “Emax (fold induction over background)” value is 36.53 and the concentration for a half-maximal effect (EC50) was 0.07 nM.

In the case of “I: [NMeA][hArg]DC[Hyp]LVNPLCLHP[dD]W[hArg]C-NH2 / II: Ac-C[tBuAla]PE[dK]PYCFADPY[Nle]CA-NH2 / III: Ac-C[tBuAla]PE[dK]PYCFADPY[Nle]CA-NH2 (linker I:4-I:11-I:18, II:1-II:8-II:15, III:1-III:8-III:15 via TATA; linker I:N-II:5-III:5 via X1) [BCY13275]”, the “Emax (fold induction over background)” value is listed as 47.50 and the response was half-maximal at 0.08 nM (EC50).

Turning to “I: Ac-A[hArg]DC[Hyp]LVNPLCLKP[dD]W[hArg]C-NH2 / II: Ac-C[tBuAla]PE[dK]PYCFADPY[Nle]CA-NH2 / III: Ac-C[tBuAla]PE[dK]PYCFADPY[Nle]CA-NH2 (linker I:4-I:11-I:18, II:1-II:8-II:15, III:1-III:8-III:15 via TATA; linker I:13-II:5-III:5 via X1) [BCY12974]”, the fold induction came out at 59.6 and the EC50 came to 0.18 nM.

For “I: Ac-A[hArg]DC[Hyp]KVNPLCLHP[dD]W[hArg]C-NH2 / II: Ac-C[tBuAla]PE[dK]PYCFADPY[Nle]CA-NH2 / III: Ac-C[tBuAla]PE[dK]PYCFADPY[Nle]CA-NH2 (linker I:4-I:11-I:18, II:1-II:8-II:15, III:1-III:8-III:15 via TATA; linker I:6-II:5-III:5 via X1) [BCY12975]”, the fold induction came out at 68.8 and the EC50 was 0.16 nM.

Turning to “I: Ac-A[hArg]DC[Hyp]LVNPLCKHP[dD]W[hArg]C-NH2 / II: Ac-C[tBuAla]PE[dK]PYCFADPY[Nle]CA-NH2 / III: Ac-C[tBuAla]PE[dK]PYCFADPY[Nle]CA-NH2 (linker I:4-I:11-I:18, II:1-II:8-II:15, III:1-III:8-III:15 via TATA; linker I:12-II:5-III:5 via X1) [BCY12976]”, the fold induction was found to be 73.2 and the concentration giving a half-maximal response (EC50) was 0.18 nM.

Consider “BCY12726: EphA2:CD137 1:2; BCY9594 + 2x BCY12145; linker N-(acid-PEG3)-N-bis(PEG3-azide) (peptide 1 A[hArg]DC[Hyp]LVNPLCLHP[dD]W[hArg]C; peptide 2 Ac-C[tBuAla]PE[dK(PYA)]PYCFAEPY[Nle]C; linker I:4-I:11-I:18 via TATA (inferred); linker II:1-II:8-II:15 via TATA; linker II:N-II:5 via N‑(acid-PEG3)‑N‑bis(PEG3-azide); not fully specified (N-terminus); reading uncertain; also: chain 2 twice (1:2 complex))”, for which the “Fold Improvement over BCY9173, EC50 (nM)” value was determined as 0.2 fold and the “Fold Improvement over Emax” value is reported as 0.9 fold.

Turning to “I: C[Hyp][Cba]VNPLCL[Dip]P[dD]WTC[dA]-NH2 / II: [Mpa][tBuAla]PE[dK]PYCFADPY[Nle]C-NH2 / III: [tBuAla]PE[dK]PYCFADPY[Nle]C-NH2 (linker I:1-I:8-I:15, II:1-II:8-II:15 via TATA; linker I:N-II:5-III:4 via X1; linker III:N-III:7-III:14 via X2) [BCY13341]”, the “Emax (fold induction over background)” value was found to be 49.15 and it took 0.19 nM to reach a half-maximal effect (EC50).

On to “I: [d1Nal][hArg]DC[Hyp][Cba]VNPLCLEP[dA]WTC[dA]-NH2 / II: Ac-C[tBuAla]PE[dK]PYCFADPY[Nle]CA-NH2 / III: Ac-C[tBuAla]PE[dK]PYCFADPY[Nle]CA-NH2 (linker I:4-I:11-I:18, II:1-II:8-II:15, III:1-III:8-III:15 via TATA; linker I:N-II:5-III:5 via X1) [BCY13278]”, for which the fold induction is 37.9 and the EC50 amounted to 0.14 nM.

As for “I: A[hArg]DC[Hyp]LVNPLCLHP[dD]W[hArg]C-NH2 / II: Ac-C[tBuAla]PE[dK]PYCFADPY[Nle]CA-NH2 / III: Ac-C[tBuAla]PE[dK]PYCFADPY[Nle]CA-NH2 (linker I:4-I:11-I:18, II:1-II:8-II:15, III:1-III:8-III:15 via TATA; linker I:N-II:5-III:5 via X4) [BCY12979]”, the “Emax (fold induction over background)” value was 71.60 and a half-maximal response (EC50) required 0.08 nM.

On to “I: A[hArg]DC[Hyp]LVNPLCLEP[dA]WTC-NH2 / II: Ac-C[tBuAla]PE[dK]PYCFADPY[Nle]CA-NH2 / III: Ac-C[tBuAla]PE[dK]PYCFADPY[Nle]CA-NH2 (linker I:4-I:11-I:18, II:1-II:8-II:15, III:1-III:8-III:15 via TATA; linker I:N-II:5-III:5 via X1) [BCY13046]”, for which the fold induction was 57.6 and the response was half-maximal at 0.17 nM (EC50).

As for “I: A[hArg]DC[Hyp]LVNPLC[Aad]HP[dD]W[hArg]C-NH2 / II: Ac-C[tBuAla]PE[dK]PYCFADPY[Nle]CA-NH2 / III: Ac-C[tBuAla]PE[dK]PYCFADPY[Nle]CA-NH2 (linker I:4-I:11-I:18, II:1-II:8-II:15, III:1-III:8-III:15 via TATA; linker I:N-II:5-III:5 via X1) [BCY13285]”, the “Emax (fold induction over background)” value is reported as 36.53 and a half-maximal response (EC50) required 0.26 nM.

In the case of “BCY14050: EphA2:CD137 1:2; BCY13918 + 2x BCY8928; linker N-(acid-PEG3)-N-bis(PEG3-azide) (peptide 1 A[hArg]DC[Hyp]LVNPLCL[His(τ-Me)]P[dD]W[hArg]C; peptide 2 Ac-C[tBuAla]PE[dK](PYA″)PYCFADPY[Nle]CA; linker I:4-I:11-I:18, II:1-II:8-II:15 via TATA (inferred); not fully specified (N-terminus, bridges); also: 2x chain 2 (2x BCY8928) on linker)”, the “Fold Improvement over BCY9173, EC50 (nM)” value amounted to 2.05 fold and the “Fold Improvement over Emax” value was found to be 1.91 fold.

Consider “BCY14051: EphA2:CD137 1:2; BCY13919 + 2x BCY8928; linker N-(acid-PEG3)-N-bis(PEG3-azide) (peptide 1 A[hArg]DC[Hyp]LVNPLCL[Ala(4-thiazolyl)]P[dD]W[hArg]C; peptide 2 Ac-C[tBuAla]PE[dK](PYA″)PYCFADPY[Nle]CA; linker I:4-I:11-I:18, II:1-II:8-II:15 via TATA (inferred); not fully specified (N-terminus, bridges); also: 2x chain 2 (2x BCY8928) on linker)”, for which the “Fold Improvement over BCY9173, EC50 (nM)” value turned out to be 3.15 fold and the “Fold Improvement over Emax” value amounted to 1.88 fold.

For the substance “I: C[Hyp]LVNPLCL[Dip]P[dD]WTC-NH2 / II: [Mpa][tBuAla]PE[dK]PYCFADPY[Nle]C-NH2 / III: [tBuAla]PE[dK]PYCFADPY[Nle]C-NH2 (linker I:1-I:8-I:15, II:1-II:8-II:15 via TATA; linker I:N-II:5-III:4 via X1; linker III:N-III:7-III:14 via X2) [BCY13343]”, the “Emax (fold induction over background)” value was determined as 44.00 and it took 0.11 nM to reach a half-maximal effect (EC50).

As for “I: A[hArg]DC[Hyp]LVNPLCLEP[dD]W[hArg]C-NH2 / II: Ac-C[tBuAla]PE[dK]PYCFADPY[Nle]CA-NH2 / III: Ac-C[tBuAla]PE[dK]PYCFADPY[Nle]CA-NH2 (linker I:4-I:11-I:18, II:1-II:8-II:15, III:1-III:8-III:15 via TATA; linker I:N-II:5-III:5 via X1) [BCY13042]”, the fold induction is 58.3 and a half-maximal response (EC50) required 0.08 nM.

As for “I: C[Hyp]LVNPLCLEP[dD]WTC[dA]-NH2 / II: Ac-C[tBuAla]PE[dK]PYCFADPY[Nle]CA-NH2 / III: Ac-C[tBuAla]PE[dK]PYCFADPY[Nle]CA-NH2 (linker I:1-I:8-I:15, II:1-II:8-II:15, III:1-III:8-III:15 via TATA; linker I:N-II:5-III:5 via X1) [BCY13049]”, the “Emax (fold induction over background)” value is 46.03.
